Test results taken from ChEMBL document CHEMBL1150993, “Design of dual acting anticonvulsant-antimuscarinic succinimide and hydantoin derivatives” (Bioorg Med Chem Lett, 1997).
“And” between values parts separate entries of the source, which are not always exact repeats. Equal entries are not always repeated.

Legend:
[1] = tested on: Mus musculus; experiment: Anticonvulsant activity was determined in MES model, after 1 hour post administration in mice; assay type: functional
[2] = molecular target: T1, Muscarinic acetylcholine receptor M1 (Rattus norvegicus, UniProt P08482); experiment: Displacement of [3H]pirenzepine from muscarinic M1 receptor of rat cortex homogenates.
T1 sequence (P08482 whole entry): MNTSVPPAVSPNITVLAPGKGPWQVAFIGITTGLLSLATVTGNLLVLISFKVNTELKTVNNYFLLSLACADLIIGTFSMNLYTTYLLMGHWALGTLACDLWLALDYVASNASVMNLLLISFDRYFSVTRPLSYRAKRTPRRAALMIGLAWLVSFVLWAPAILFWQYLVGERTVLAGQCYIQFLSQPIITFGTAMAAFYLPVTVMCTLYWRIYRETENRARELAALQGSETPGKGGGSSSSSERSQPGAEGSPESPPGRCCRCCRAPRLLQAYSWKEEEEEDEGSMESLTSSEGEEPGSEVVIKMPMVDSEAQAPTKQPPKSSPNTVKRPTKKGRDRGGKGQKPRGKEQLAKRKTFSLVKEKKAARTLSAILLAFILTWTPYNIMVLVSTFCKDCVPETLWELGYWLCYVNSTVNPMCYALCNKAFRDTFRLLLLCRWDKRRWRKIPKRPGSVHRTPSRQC

[3] = molecular target: T2, Muscarinic acetylcholine receptor M2 (Rattus norvegicus, UniProt P10980); experiment: Displacement of [3H]QNB (quinuclidinyl benzylate) from muscarinic M2 receptor of rat heart homogenates.; assay type: tissue-based
T2 sequence (P10980 whole entry): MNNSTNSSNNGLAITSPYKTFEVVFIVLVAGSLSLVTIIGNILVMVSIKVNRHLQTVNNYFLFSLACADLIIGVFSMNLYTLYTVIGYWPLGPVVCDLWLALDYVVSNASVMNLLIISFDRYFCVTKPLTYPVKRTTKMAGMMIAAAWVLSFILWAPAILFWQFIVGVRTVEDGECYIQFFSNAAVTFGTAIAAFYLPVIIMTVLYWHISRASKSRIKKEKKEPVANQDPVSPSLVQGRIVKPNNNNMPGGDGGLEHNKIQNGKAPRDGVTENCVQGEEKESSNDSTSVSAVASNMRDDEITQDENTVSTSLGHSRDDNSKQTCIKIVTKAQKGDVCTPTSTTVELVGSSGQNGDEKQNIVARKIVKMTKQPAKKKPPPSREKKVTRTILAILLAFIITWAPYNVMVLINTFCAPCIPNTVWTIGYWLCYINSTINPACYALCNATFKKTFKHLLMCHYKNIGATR

| Structure (SMILES) | ED50 [1] | Ki [2] [nM] | Ki [3] [nM] |
| --- | --- | --- | --- |
| CCN(CC)CC#CCN1C(=O)NC(c2ccccc2)(c2ccccc2)C1=O | 83.6 mg/kg | 380 | 950 |
| CCN(CC)CC#CCN1C(=O)CC2(C1=O)c1ccccc1-c1ccccc12 | 23.7 mg/kg and 58 µmol/kg | 1630 | > 10000 |
| CCN(CC)CC#CCN1C(=O)c2ccccc2C1=O | – | 30 | 100 |
| O=C1CC2(CCc3ccccc32)C(=O)N1CC#CCN1CCCC1 (stereo not drawn) | > 600 mg/kg | 1590 | > 10000 |
| CC(C)N(CC#CCN1C(=O)CC2(C1=O)c1ccccc1-c1ccccc12)C(C)C | – | 1620 | > 10000 |
| CCN(CC)CC#CCN1C(=O)CC(c2ccccc2)(c2ccccc2)C1=O | 20.1 mg/kg and 49 µmol/kg | 120 | 380 |
| CCN(CC)CC#CCN1C(=O)CC2(C1=O)c1ccccc1CCc1ccccc12 | 9.6 mg/kg and 22 µmol/kg | 460 | 2090 |
| CCN(CC)CC#CCN1C(=O)CC(c2ccccc2)C1=O (stereo not drawn) | 48.9 mg/kg and 126 µmol/kg | 2300 | > 10000 |
| O=C1NC(c2ccccc2)(c2ccccc2)C(=O)N1CC#CCN1CCCC1 | – | 640 | > 10000 |
| CCN(CC)CC#CCN1C(=O)CC2(CCc3ccccc32)C1=O (stereo not drawn) | – | 680 | > 10000 |
| CCN(CC)CC#CCN1C(=O)NC2(CCc3ccccc32)C1=O (stereo not drawn) | 55.4 mg/kg and 153 µmol/kg | 1050 | > 10000 |
| CC(C)N(CC#CCN1C(=O)CC(c2ccccc2)(c2ccccc2)C1=O)C(C)C | 17.5 mg/kg and 40 µmol/kg | 530 | 440 |
| O=C1NC(=O)C(c2ccccc2)(c2ccccc2)N1 [PHENYTOIN] | 16.2 mg/kg | – | – |
